Data reported in patent US12139472B2, “Inhibitors of advanced glycation end products” (priority 2019, dated 2024).

Test system: CYP3A
Type: in vitro ADME, human
Conditions: HLM
Description: Compound 5 (PTG-630 free base) and 7 additional compounds for CYP3A P450 inhibition.
Imidazole (and benzimidazole) containing drugs are ubiquitous in pharmacological practice; however, drug-drug interactions (DDI) have been observed with some imidazole-containing classes, such as the antifungal azoles typified by ketoconazole. It is believed that the imidazole moiety accounts for their ability to inhibit CYP3A, the major DDI enzyme that metabolizes up to 50% of common drugs. The compounds of the disclosure incorporate an imidazole moiety attached to a pyridine ring via the imidazole C-2. They all share an imidazo-hydroxypyridine theme that can bind redox metal ions, while differing in the nature of the X side-chain. The potential of the compounds of the disclosure for DDI was evaluated by screening their inhibition of CYP3A.
Two studies were conducted in human liver microsomes (HLM). Lead candidate PTG-630 was tested using the Eurofins G232 panel (Drug Metab Dispos. 2001 January; 29(1):23-9), where inhibition was measured against seven CYP enzymes; CYP3A4 was tested using two different substrates, midazolam and testosterone. In a second study, inhibition of CYP3A4 (midazolam substrate only) was compared for 8 compounds of interest. The test protocol involved one-point measurements in duplicate, where inhibition was measured at a fixed 10 μM concentration of candidate inhibitors. In all cases, the substrate for each CYP enzyme was at a concentration equal to its specific Km value that was independently obtained from an 8-point dose-response study. Based on the observed value for percent inhibition for each test compound, we calculated of an IC50 assuming a competitive mode of inhibition. If percent inhibition for an inhibitor at a concentration of [I] is denoted by P, then: IC50=[I]*(100−P)/P In the single-point assay, [I] is 10 μM. If measured inhibition is 10%, then IC50=10*(100-10)/10=90 μM. […] As discussed in Lin et al. (J Pharm Sci. 2007 September; 96(9):2485-93; doi: 10.1002/jps.20884), CYP inhibition is broadly interpreted as being “potent” if IC50<1 μM, “moderate” if 1 μM<IC50<10 μM, and “weak” if IC50>10 μM.

## Cc1ncc(CN2CCCCCC2)c(-c2ncc[nH]2)c1O [PTG-670]
midazolam, from one-point % inhibition at 10 μM, IC50=[I]*(100−P)/P
  Estimated IC50: — None
Substrate midazolam at Km, Inhib Conc. 1.0E−05 M
  P % inhib: −1.1%
